ChEMBL document CHEMBL5370592, “Synthesis and Structure-Activity Relationships of a New Class of Oxadiazoles Targeting DprE1 as Antitubercular Agents” (ACS Med Chem Lett, 2023)
Converted amounts (≈) assume the structure as drawn. The source made the active and inactive calls. No cut-off for these calls is given here.

Legend:
[1] = test system: Mycobacterium tuberculosis; assay: Antitubercular activity against Mycobacterium tuberculosis H37Rv ATCC 27294 assessed as inhibition of bacterial growth cultured in Middlebrook 7H9/ADC/Tween 80 with cydC::aph medium for 2 weeks; assay type: functional; conditions: H37Rv ATCC 27294, 336 h
[2] = test system: Mycobacterium tuberculosis; assay: Antitubercular activity against Mycobacterium tuberculosis H37RV ATCC 27294 assessed as inhibition of bacterial growth cultured in Middlebrook 7H9/cholesterol/BSA/Tyloxapol medium for 2 weeks; assay type: functional; conditions: H37Rv ATCC 27294, 336 h
[3] = test system: Mycobacterium tuberculosis; assay: Antitubercular activity against Mycobacterium tuberculosis H37Rv ATCC 27294 assessed as inhibition of bacterial growth cultured in Middlebrook 7H9/DPPC/cholesterol/BSA/Tyloxapol medium for 2 weeks; assay type: functional; conditions: H37Rv ATCC 27294, 336 h
[4] = test system: Mycobacterium tuberculosis; assay: Antitubercular activity against Mycobacterium tuberculosis H37Rv ATCC 27294 assessed as inhibition of bacterial growth cultured in Middlebrook 7H9/BSA/Tyloxapol with glucose medium for 2 weeks; assay type: functional; conditions: H37Rv ATCC 27294, 336 h
[5] = test system: Mycobacterium tuberculosis; assay: Antitubercular activity against Mycobacterium tuberculosis H37Rv ATCC 27294 assessed as inhibition of bacterial growth cultured in Middlebrook 7H9/ADC/Tween 80 medium for 2 weeks; assay type: functional; conditions: H37Rv ATCC 27294, 336 h
[6] = test system: Mycobacterium tuberculosis; assay: Antitubercular activity against Mycobacterium tuberculosis K10b00DS assessed as inhibition of bacterial growth incubated for 2 weeks; assay type: functional; conditions: 336 h
[7] = target: T1, Decaprenylphosphoryl-beta-D-ribose oxidase (Mycobacterium tuberculosis (strain ATCC 25618 / H37Rv)) (UniProt P9WJF1); assay: Inhibition of DprE1-mediated cell wall synthesis in Mycobacterium tuberculosis H37Rv transfected with PiniB-LUX reporter assessed as induction of reporter gene expression incubated for 12 days by bioluminescence analysis; conditions: time 12.0 day
T1 sequence (whole entry): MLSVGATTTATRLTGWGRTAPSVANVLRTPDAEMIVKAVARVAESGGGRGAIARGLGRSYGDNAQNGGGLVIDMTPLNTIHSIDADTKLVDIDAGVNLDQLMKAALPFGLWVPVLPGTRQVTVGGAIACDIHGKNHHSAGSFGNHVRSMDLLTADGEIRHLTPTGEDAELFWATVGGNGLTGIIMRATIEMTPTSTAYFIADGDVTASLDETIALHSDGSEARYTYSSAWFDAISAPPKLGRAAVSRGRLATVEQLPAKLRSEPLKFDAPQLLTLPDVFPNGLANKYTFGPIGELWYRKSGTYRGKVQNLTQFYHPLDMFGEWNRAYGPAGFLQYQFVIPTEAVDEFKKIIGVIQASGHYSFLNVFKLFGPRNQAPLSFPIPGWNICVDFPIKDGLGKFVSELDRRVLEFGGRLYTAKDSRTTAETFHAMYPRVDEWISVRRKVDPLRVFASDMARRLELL

[8] = test system: Mycobacterium tuberculosis; assay: Induction of DNA damage in Mycobacterium tuberculosis H37Rv transfected with PrecA-LUX reporter assessed as induction of recA reporter gene expression incubated for 12 days by bioluminescence analysis; assay type: functional, organism-based; conditions: time 12.0 day
[9] = test system: Mycobacterium tuberculosis; assay: Induction of DNA damage in Mycobacterium tuberculosis H37Rv transfected with PradA-LUX reporter assessed as induction of radA reporter gene expression incubated for 12 days by bioluminescence analysis; assay type: functional, organism-based; conditions: time 12.0 day
[10] = test system: Mycobacterium tuberculosis; assay: Antitubercular activity against Mycobacterium tuberculosis H37Rv ATCC 27294 assessed as inhibition of bacterial growth cultured in Middlebrook 7H9/glucose/casitone/tyloxapol medium for 2 weeks; assay type: functional; conditions: H37Rv ATCC 27294, 336 h
[11] = Cytotoxicity against human HepG2 cells assessed as reduction in cell viability incubated for 24 hrs in DMEM/10% FBS supplemented with glucose by CellTiter-Glo luminescent assay; assay type: toxicity, cell-based
[12] = Cytotoxicity against human HepG2 cells assessed as reduction in cell viability incubated for 24 hrs in DMEM/10% FBS supplemented with galactose by CellTiter-Glo luminescent assay; assay type: toxicity, cell-based
[13] = test system: Mycobacterium tuberculosis; assay: Antitubercular activity against Mycobacterium tuberculosis infected in mouse J774 cells assessed as decrease in colony forming unit enumeration on solid medium at 5XMIC measured after 7 days; assay type: functional, organism-based; conditions: time 7.0 day
[14] = test system: Mycobacterium tuberculosis; assay: Antitubercular activity against Mycobacterium tuberculosis H37Rv ATCC 27294 assessed as inhibition of bacterial growth incubated for 2 weeks; assay type: functional; conditions: H37Rv ATCC 27294, 336 h
[15] = test system: Mycobacterium tuberculosis; assay: Antitubercular activity against Mycobacterium tuberculosis Erdman assessed as inhibition of bacterial growth incubated for 2 weeks; assay type: functional; conditions: 336 h
[16] = test system: Mycobacterium tuberculosis; assay: Antitubercular activity against Mycobacterium tuberculosis HN878 assessed as inhibition of bacterial growth incubated for 2 weeks; assay type: functional; conditions: HN878, 336 h
[17] = test system: Mycobacterium tuberculosis; assay: Antitubercular activity against Mycobacterium tuberculosis CDC1551 assessed as inhibition of bacterial growth incubated for 2 weeks; assay type: functional; conditions: CDC1551, 336 h
[18] = test system: Mycobacterium tuberculosis; assay: Antitubercular activity against Mycobacterium tuberculosis clinical strain K5072429 assessed as inhibition of bacterial growth incubated for 2 weeks; assay type: functional; conditions: K5072429, 336 h
[19] = test system: Mycobacterium tuberculosis; assay: Antitubercular activity against Mycobacterium tuberculosis K04b00DS assessed as inhibition of bacterial growth incubated for 2 weeks; assay type: functional; conditions: 336 h
[20] = test system: Mycobacterium tuberculosis; assay: Antitubercular activity against Mycobacterium tuberculosis K05b00DS assessed as inhibition of bacterial growth incubated for 2 weeks; assay type: functional; conditions: 336 h
[21] = test system: Mycobacterium tuberculosis; assay: Antitubercular activity against Mycobacterium tuberculosis K07b00DS assessed as inhibition of bacterial growth incubated for 2 weeks; assay type: functional; conditions: 336 h
[22] = test system: Mycobacterium tuberculosis; assay: Antitubercular activity against Mycobacterium tuberculosis K09b00DS assessed as inhibition of bacterial growth incubated for 2 weeks; assay type: functional; conditions: 336 h
[23] = test system: Mycobacterium tuberculosis; assay: Antitubercular activity against Mycobacterium tuberculosis K11b00DS assessed as inhibition of bacterial growth incubated for 2 weeks; assay type: functional; conditions: 336 h
[24] = test system: Mycobacterium tuberculosis; assay: Antitubercular activity against Mycobacterium tuberculosis K12b00DS assessed as inhibition of bacterial growth incubated for 2 weeks; assay type: functional; conditions: 336 h
[25] = test system: Mycobacterium tuberculosis; assay: Antitubercular activity against Mycobacterium tuberculosis K13b00DS assessed as inhibition of bacterial growth incubated for 2 weeks; assay type: functional; conditions: 336 h
[26] = test system: Mycobacterium tuberculosis; assay: Antitubercular activity against Mycobacterium tuberculosis K14b00DS assessed as inhibition of bacterial growth incubated for 2 weeks; assay type: functional; conditions: 336 h
[27] = test system: Mycobacterium tuberculosis; assay: Antitubercular activity against Mycobacterium tuberculosis K15b00DS assessed as inhibition of bacterial growth incubated for 2 weeks; assay type: functional; conditions: 336 h
[28] = test system: Mycobacterium tuberculosis; assay: Antitubercular activity against Mycobacterium tuberculosis K16b00DS assessed as inhibition of bacterial growth incubated for 2 weeks; assay type: functional; conditions: 336 h
[29] = test system: Mycobacterium tuberculosis; assay: Antitubercular activity against Mycobacterium tuberculosis K17b00DS assessed as inhibition of bacterial growth incubated for 2 weeks; assay type: functional; conditions: 336 h
[30] = test system: Mycobacterium tuberculosis; assay: Antitubercular activity against Mycobacterium tuberculosis K35b00DS assessed as inhibition of bacterial growth incubated for 2 weeks; assay type: functional; conditions: 336 h
[31] = test system: Mycobacterium tuberculosis; assay: Antitubercular activity against Mycobacterium tuberculosis NIH_G12 assessed as inhibition of bacterial growth incubated for 2 weeks; assay type: functional; conditions: NIH_G12, 336 h

## O=C(C1CCN(c2nnc(-c3ccccc3)o2)CC1)N1CCC(Cc2ccccc2)CC1
[1]
  MIC: 0.6 µM (≈ 0.258 µg/mL)
[2]
  MIC: 0.78 µM (≈ 0.336 µg/mL)
[3]
  MIC: 0.6 µM (≈ 0.258 µg/mL)
[4]
  MIC: 0.78 µM (≈ 0.336 µg/mL)
[5]
  MIC: 0.78 µM (≈ 0.336 µg/mL)
[6]
  MIC: 1.2 µM (≈ 0.517 µg/mL)
[7]
  inhibition: Active
[8]
  Activity: inactive
[9]
  Activity: inactive
[10]
  MIC: 0.1 µM (≈ 0.0431 µg/mL)
[11]
  IC50 at 24 h: > 50 µM
[12]
  IC50 at 24 h: 37.5 µM
[13]
  Activity: Active
[14]
  MIC: 0.6 µM (≈ 0.258 µg/mL)
[15]
  MIC: 0.39 µM (≈ 0.168 µg/mL)
[16]
  MIC: 0.78 µM (≈ 0.336 µg/mL)
[17]
  MIC: 0.6 µM (≈ 0.258 µg/mL)
[18]
  MIC: 2.3 µM (≈ 0.99 µg/mL)
[19]
  MIC: 0.78 µM (≈ 0.336 µg/mL)
[20]
  MIC: 1.2 µM (≈ 0.517 µg/mL)
[21]
  MIC: 1.2 µM (≈ 0.517 µg/mL)
[22]
  MIC: 1.2 µM (≈ 0.517 µg/mL)
[23]
  MIC: 1.56 µM (≈ 0.672 µg/mL)
[24]
  MIC: 1.56 µM (≈ 0.672 µg/mL)
[25]
  MIC: 1.2 µM (≈ 0.517 µg/mL)
[26]
  MIC: 1.2 µM (≈ 0.517 µg/mL)
[27]
  MIC: 0.78 µM (≈ 0.336 µg/mL)
[28]
  MIC: 0.78 µM (≈ 0.336 µg/mL)
[29]
  MIC: 0.78 µM (≈ 0.336 µg/mL)
[30]
  MIC: 1.2 µM (≈ 0.517 µg/mL)
[31]
  MIC: 0.78 µM (≈ 0.336 µg/mL)
